This assay concerns P388 leukemia ip, CD2F1 mice, survival T/C. Kind of assay: NCI In Vivo Anticancer Drug Screen. Data for tumor model P388 Leukemia (intraperitoneal) in CD2F1 (CDF1) mice. The note with it: endpoint: median survival time, higher = longer survival. Put shortly: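 Mice carrying the transplanted tumor received test compound or vehicle. Survival was recorded in each group, and the value is the treated-group measurement divided by that of the vehicle-treated control group.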

[1] abbreviates: dose: 25.0 mg/kg/injection, schedule: Q01DX009 (ip), vehicle: saline with Tween-80.
Where [2] appears, read: dose: 50.0 mg/kg/injection, schedule: Q01DX009 (ip), vehicle: saline with Tween-80.
[3] abbreviates: dose: 50.0 mg/kg/injection, schedule: Q01DX009 (ip), vehicle: saline.
Setting [4] is: dose: 200.0 mg/kg/injection, schedule: Q01DX009 (ip), vehicle: saline.

“And” between values parts separate entries of the source, which are not always exact repeats. Equal entries are not always repeated. Inconclusive results and toxic doses are left out.

The values that follow come from PubChem BioAssay AID330 (DTP/NCI, 2004).

In the case of `COC1C(C)OC(OC2CC(C)(O)Cc3cc4c(c(O)c32)C(=O)c2c(O)cc3c(c2C4=O)OC2OC3(C)C(O)C(N(C)C)C2O)C(OC)C1(C)OC` (configuration not stated), the T/C (dose: 0.6 mg/kg/injection, schedule: Q01DX009 (ip), vehicle: other) is 124 % of control; the T/C (dose: 0.75 mg/kg/injection, schedule: Q04DX003 (ip), vehicle: saline) is 121 % of control; the T/C (dose: 1.0 mg/kg/injection, schedule: Q01DX009 (ip), vehicle: saline) was 151 % of control; the T/C (dose: 1.0 mg/kg/injection, schedule: Q04DX003 (ip), vehicle: saline) is 121 % of control; the T/C (dose: 1.25 mg/kg/injection, schedule: Q01DX009 (ip), vehicle: other) is 151 % of control; the T/C (dose: 1.25 mg/kg/injection, schedule: Q04DX003 (ip), vehicle: other) was 124 % of control. In addition, the T/C by setting is: (dose: 1.5 mg/kg/injection, schedule: Q01DX009 (ip), vehicle: saline) 160 % of control; (dose: 2.0 mg/kg/injection, schedule: Q01DX009 (ip), vehicle: saline) 160 % of control; (dose: 2.5 mg/kg/injection, schedule: Q01DX009 (ip), vehicle: saline) 174 % of control; (dose: 2.5 mg/kg/injection, schedule: Q04DX003 (ip), vehicle: other) 153 % of control; (dose: 3.0 mg/kg/injection, schedule: Q01DX009 (ip), vehicle: saline) 169 % of control; (dose: 4.0 mg/kg/injection, schedule: Q01DX009 (ip), vehicle: saline) 180 % of control. Also, the T/C is, setting by setting: (dose: 5.0 mg/kg/injection, schedule: Q01DX009 (ip), vehicle: saline) 193 % of control; (dose: 5.0 mg/kg/injection, schedule: Q04DX003 (ip), vehicle: saline) 150 % of control; (dose: 6.0 mg/kg/injection, schedule: Q04DX003 (ip), vehicle: water) 153 % of control; (dose: 10.0 mg/kg/injection, schedule: Q04DX003 (ip), vehicle: other) 165 % of control; (dose: 10.0 mg/kg/injection, schedule: Q04DX003 (ip), vehicle: saline with Tween-80) 157 % of control; (dose: 10.0 mg/kg/injection, schedule: Q04DX003 (ip), vehicle: saline) 156 % of control. For the same compound, the T/C is 157 % of control (dose: 10.0 mg/kg/injection, schedule: Q04DX003 (ip), vehicle: water); 158 % of control (dose: 12.0 mg/kg/injection, schedule: Q04DX003 (ip), vehicle: saline); 103 % of control (dose: 12.5 mg/kg/injection, schedule: Q01DX001 (sc), vehicle: other); 150 % of control (dose: 15.0 mg/kg/injection, schedule: Q04DX003 (ip), vehicle: saline with Tween-80); 112 % of control (dose: 16.0 mg/kg/injection, schedule: Q04DX003 (ip), vehicle: saline); 124 % of control (dose: 20.0 mg/kg/injection, schedule: Q04DX003 (ip), vehicle: other). The T/C was 157 % of control and 175 % of control (dose: 25.0 mg/kg/injection, schedule: Q01DX001 (ip), vehicle: other); 100 % of control and 102 % of control (dose: 25.0 mg/kg/injection, schedule: Q01DX001 (sc), vehicle: other); 103 % of control and 105 % of control (dose: 50.0 mg/kg/injection, schedule: Q01DX001 (sc), vehicle: other); 99 % of control (dose: 100.0 mg/kg/injection, schedule: Q01DX001 (sc), vehicle: other); 118 % of control (dose: 625.0 micrograms/kg/injection, schedule: Q01DX009 (ip), vehicle: other); 157 % of control (dose: 1250.0 micrograms/kg/injection, schedule: Q01DX009 (ip), vehicle: other). The T/C runs as follows: (dose: 2500.0 micrograms/kg/injection, schedule: Q01DX009 (ip), vehicle: other) 157 % of control and 172 % of control; (dose: 5000.0 micrograms/kg/injection, schedule: Q01DX009 (ip), vehicle: other) 90 % of control.
For `CN(CCNCC1CCCN1C)Cc1cccc(Cl)c1` (configuration not stated), the T/C reads like this: (dose: 50.0 mg/kg/injection, schedule: Q01DX005 (ip), vehicle: saline) 108 % of control; (dose: 100.0 mg/kg/injection, schedule: Q01DX005 (ip), vehicle: saline) 101 % of control; (dose: 200.0 mg/kg/injection, schedule: Q01DX005 (ip), vehicle: saline) 106 % of control.
As to `CC(=O)OC1CC2CC1C1C3C=CC(C3)C21` (configuration not stated), the T/C is 100 % of control under setting [1]; 104 % of control under setting [2]; 100 % of control (dose: 100.0 mg/kg/injection, schedule: Q01DX001 (ip), vehicle: saline); 91 % of control (dose: 200.0 mg/kg/injection, schedule: Q01DX001 (ip), vehicle: saline); 95 % of control (dose: 400.0 mg/kg/injection, schedule: Q01DX001 (ip), vehicle: saline).
With `COC1CC(OC2CCC3(C)C(CCC45CCC(C6=CC(=O)OC6)C(C)(CCC43)C5=O)C2)OC(C)C1O` (configuration not stated), the T/C was 90 % of control (dose: 1.56 mg/kg/injection, schedule: Q01DX005 (ip), vehicle: Klucel (hydroxypropylcellulose) (HPC)); 97 % of control (dose: 3.12 mg/kg/injection, schedule: Q01DX005 (ip), vehicle: Klucel (hydroxypropylcellulose) (HPC)); 100 % of control (dose: 6.25 mg/kg/injection, schedule: Q01DX005 (ip), vehicle: Klucel (hydroxypropylcellulose) (HPC)); 88 % of control and 91 % of control (dose: 12.5 mg/kg/injection, schedule: Q01DX005 (ip), vehicle: Klucel (hydroxypropylcellulose) (HPC)).
Regarding `O=c1c2ccccc2oc2cc3c(c(O)c12)CCCC3`, the T/C by setting is: (dose: 12.5 mg/kg/injection, schedule: Q01DX005 (ip), vehicle: saline with Tween-80) 91 % of control; (dose: 25.0 mg/kg/injection, schedule: Q01DX005 (ip), vehicle: saline with Tween-80) 97 % of control.
In the case of `COC(=O)CS(=O)(=O)CCCCS(=O)(=O)CC(=O)OC`, the T/C was 99 % of control under setting [3]; 99 % of control (dose: 100.0 mg/kg/injection, schedule: Q01DX009 (ip), vehicle: saline); 103 % of control under setting [4].
On to `N=C(N)S(=O)O`, for which the T/C reads like this: under setting [1], 99 % of control; under setting [2], 100 % of control; under setting [3], 96 % of control; (dose: 100.0 mg/kg/injection, schedule: Q01DX009 (ip), vehicle: saline with Tween-80) 98 % of control; (dose: 200.0 mg/kg/injection, schedule: Q01DX009 (ip), vehicle: saline with Tween-80) 101 % of control; under setting [4], 95 % of control.
Consider `CC1(C)C(C(N)=O)C(=O)NC(=O)C1C(N)=O` (configuration not stated), for which the T/C runs as follows: (dose: 25.0 mg/kg/injection, schedule: Q01DX009 (ip), vehicle: other) 100 % of control; (dose: 50.0 mg/kg/injection, schedule: Q01DX009 (ip), vehicle: other) 100 % of control; (dose: 100.0 mg/kg/injection, schedule: Q01DX009 (ip), vehicle: other) 99 % of control; (dose: 200.0 mg/kg/injection, schedule: Q01DX009 (ip), vehicle: other) 100 % of control; (dose: 400.0 mg/kg/injection, schedule: Q01DX009 (ip), vehicle: other) 105 % of control.
On to `CCCC1OCC(O)C(C(O)C(=O)CN(C)c2ccccc2)O1` (configuration not stated), for which the T/C reads like this: (dose: 50.0 mg/kg/injection, schedule: Q01DX005 (ip), vehicle: saline with Tween-80) 98 % of control; (dose: 100.0 mg/kg/injection, schedule: Q01DX005 (ip), vehicle: saline with Tween-80) 100 % of control; (dose: 200.0 mg/kg/injection, schedule: Q01DX005 (ip), vehicle: saline with Tween-80) 98 % of control.
For the compound `O=C1NNC(=O)C2(CCC(O)C2)c2ccncc21` (configuration not stated), the T/C (dose: 3.75 mg/kg/injection, schedule: Q01DX005 (ip), vehicle: saline) is 105 % of control; the T/C (dose: 7.5 mg/kg/injection, schedule: Q01DX005 (ip), vehicle: saline) is 92 % of control; the T/C (dose: 15.0 mg/kg/injection, schedule: Q01DX005 (ip), vehicle: saline) was 96 % of control; the T/C (dose: 30.0 mg/kg/injection, schedule: Q01DX005 (ip), vehicle: saline) was 105 % of control.
For `CCOC1OCN(C(C)C)CC1(C)C` (configuration not stated), the T/C under setting [1] was 98 % of control.
Regarding `Cc1cc(-c2cc(C)on2)no1`, the T/C reads like this: (dose: 60.0 mg/kg/injection, schedule: Q01DX005 (ip), vehicle: saline) 103 % of control; (dose: 120.0 mg/kg/injection, schedule: Q01DX005 (ip), vehicle: saline) 103 % of control; (dose: 240.0 mg/kg/injection, schedule: Q01DX005 (ip), vehicle: saline) 103 % of control.
As for `COc1ccc(C2CCc3cc4c(cc3C2=O)OCO4)cc1OC` (configuration not stated), the T/C (dose: 200.0 mg/kg/injection, schedule: Q04DX003 (ip), vehicle: saline with Tween-80) is 90 % of control.
